From a melting point compilation (Tetko et al.; mined from patent text by program, amines drawn as free bases though some values may be those of a salt) come the findings set out here.

Regarding `COc1ccccc1CCn1nnnc1-c1ccc2c(c1)C=CC(C)(C)O2`, the melting point (usually the temperature of the solid-liquid transition) lay within 101 to 105 °C.

The molecule `CCCC1(CC(=O)O)OC=CC2=C1NC1=C3CCCCC3CCC21` (stereo not given) displayed a melting point of 78 to 80 °C.

With `O=C(Nc1cccc(C(F)(F)F)c1)c1ccc([N+](=O)[O-])cc1`, the melting point is 210 °C.

Molecule `CC(C)(C)OC(=O)N1CCN(c2nccc(Oc3ccc(NC(=O)c4cc(F)cc(N5CCOCC5)c4)c4ccccc34)n2)CC1` returned a melting point of 131 to 133 °C.

`N#CN=CNc1nc(OCc2ccc(F)cc2)ncc1F` displayed a melting point of 148 to 149 °C.

In turn, `COC(=O)C(C)(C)Cc1c(SC(C)(C)C)c2cc(O)ccc2n1Cc1ccc(Cl)cc1` showed a melting point of 170 to 171 °C.

In turn, `CCn1nc(-c2ccccc2)c(C(C)=O)c(Nc2ccc(Br)c3cccnc23)c1=O` displayed a melting point of 148 to 149 °C.

`NCC1CN(c2c(F)cc3c(=O)c(C(=O)O)cn(-c4nc(N)c(F)cc4F)c3c2Cl)C1` came in with a melting point of 249 to 254 °C.

In turn, `CC(C)C[C@H](NC(=O)[C@H](Cc1c[nH]cn1)NC(=O)[C@H](Cc1ccccc1)NC(=O)OCc1ccccc1)[C@H](O)CO` yielded a melting point of 159 to 162 °C.

For the molecule `CCOC(=O)c1ccc(C#Cc2ccc(C)cc2)c(OC)c1`, the melting point is 71 to 73 °C.

Regarding `CCNC(=O)Nc1ccc2c(c1Cl)C(c1ccccc1F)=NCC(=O)N2C`, the melting point was 155 to 160 °C.

With `CC(=O)OC1CSC(Oc2cncc(-c3ccco3)c2)C(OC(C)=O)C1OC(C)=O` (stereo not given), the melting point is 184 °C.

As for `O=C1CCC(N2C(=O)c3cccc(CNC(=O)c4cccc(Br)n4)c3C2=O)C(=O)N1` (stereo not given), the melting point lay in the range of 181 to 183 °C.

As to `Cc1nc(N2CCc3ccccc3CC2)c(C#N)c(=O)n1C(F)F`, the melting point was 143 °C.

For the molecule `C#Cc1cc2cn[nH]c2c(C(=O)NC2(C3CC3)CC2)c1NC(=O)c1cc(C(F)(F)F)nn1-c1ncccc1Cl`, the melting point lay in the range of 246 to 248 °C.

In the case of `CC(=O)c1cccc(-c2ccc3nc(-c4ccc(Cl)cc4)cn3c2)c1`, the melting point lay within 173 to 175 °C.

As for `COc1cc(-c2ncn(CCO)c2-c2ccc(C(F)(F)F)cc2)cc(OC)c1OC`, the melting point lay in the range of 208 to 210 °C.

`CCCn1nc(-c2ccc(O)c(F)c2)c2cccc(-c3ccccc3)c21` showed a melting point of 177 to 178 °C.

On to `COCc1cnc2c(NC(=O)c3c(Cl)cccc3Cl)cc(C)cc2c1Cl`, for which the melting point fell in the range of 156 to 158 °C.

`COc1ccc(C(=O)Nc2ccc3ccc(S(=O)CCN(C)C)nc3n2)cc1` (stereo not given): the melting point worked out at 158 °C.

`O=C(O)[C@H](Cc1ccccc1)NS(=O)(=O)c1ccc(N2CCC(c3ccccc3)CC2)cc1` returned a melting point of 167 to 169 °C.

As for `COc1cc(COC(=O)CCc2nc(-c3ccc(Cl)cc3)co2)cc(OC)c1OC`, the melting point is 86 to 87 °C.

Molecule `CS(=O)(=O)c1ccc(-n2nc(-c3ccc(F)cc3)cc2C(F)(F)F)cc1` displayed a melting point of 158 to 160 °C.

`CC[C@H]1[C@H](O)CC(=O)N1c1ccc(C#N)c(OC)c1` came in with a melting point of 138 to 141 °C.

The molecule `CCCCNc1nc(C)c(C(=O)c2ccc(N)c(N)c2)s1` showed a melting point of 127 to 130 °C.

On to `CC(=O)Oc1ccc(C2COc3cc(OC(C)=O)cc(C)c3C2=O)cc1` (stereo not given), for which the melting point lay within 143 to 145 °C.

`CCCCNS(=O)(=O)CC(O)C(O)C(CC1CCCCC1)NC(=O)c1ccccn1` (stereo not given) showed a melting point of 167 to 170 °C.

For `CC1=Nc2ccc(C)cc2C(=O)C1`, the melting point fell in the range of 80 to 82 °C.

With `O=C(NCc1ccccc1F)c1ccc2cnccc2n1`, the melting point fell in the range of 110 to 111 °C.

`COC(=O)c1c(S(N)(=O)=O)c(C)nn1-c1ccccn1` displayed a melting point of 170 to 172 °C.

`CC[C@H](COCCCc1ccccc1)n1cnc2c(N)nc3ccccc3c21`: the melting point was in the range of 118 to 120 °C.

Turning to `N#Cc1cccc(NC(=O)c2ccc(-n3nc(C(F)(F)F)cc3C(F)(F)F)cc2)c1`, the melting point lay in the range of 195 to 196 °C.

Molecule `O=C(c1ccc(Nc2ccnc3cc(C(F)(F)F)ccc23)cc1)N1CCN(S(=O)(=O)c2ccc(Cl)cc2)CC1` came in with a melting point of 234 to 236 °C.

Molecule `COc1cc(C(C)C)c2c(c1)S(=O)(=O)N(COc1cc(C(F)(F)F)nn1-c1ccc([N+](=O)[O-])cc1)C2=O` came in with a melting point of 185 to 187 °C.

`Cc1cc(C)nc(NC(=O)NS(=O)(=O)N2CCCC2)n1` displayed a melting point of 180 to 181 °C.

The molecule `CC1(C)CC(SCc2c(C(F)(F)F)nn(C(F)F)c2Cl)=NO1` gave a melting point of 41 to 42 °C.

For `CN(c1cccc2cc(C3=NCC(CN4CCOCC4)S3)[nH]c12)S(=O)(=O)c1cccs1` (stereo not given), the melting point was in the range of 139 to 140 °C.

The molecule `Cc1cncn1CC#Cc1cc(CN2CCOCC2)cc2c(=O)c(C(=O)NCc3ccc(Cl)cc3)cn(C)c12` showed a melting point of 149 to 152 °C.

Regarding `C#CCN(C)CC1=Cc2ccccc2Oc2ccccc21`, the melting point lay within 66 to 67 °C.

Take `CCN1C(=O)CCC(C)(C)c2cc([N+](=O)[O-])ccc21`: the melting point is 67 °C.

As to `CC(C)(C)n1nc(Cc2ccncc2)c(C(N)=O)c1N`, the melting point was 125 to 127 °C.

`CCCCC/C(=C\C=C\C(=S)NCCCCc1cccnc1)c1ccc(OC)cc1` yielded a melting point of 121 to 122 °C.

Consider `CCOC=Nc1c(SC(F)(F)F)c(C#N)nn1-c1c(Cl)cc(C(F)(F)F)cc1Cl`, for which the melting point is 68 °C.

Turning to `Cc1cc(-c2nn(-c3cccc(C(F)(F)F)c3)ccc2=O)n(-c2ccccc2)n1`, the melting point was in the range of 167 to 168 °C.

As to `CC(=O)Nc1nc2ccc(S(=O)(=O)n3c(CCCC(=O)O)cc4nc(Cl)ccc43)cc2s1`, the melting point came out at 270 °C.

The molecule `Cc1cc(COc2ccc(S(=O)(=O)NC[C@@H](C(=O)NO)N3CCNCC3)cc2)c2ccccc2n1` gave a melting point of 225 °C.

In turn, `Nc1ccc(C#Cc2nc(F)c(F)c(F)c2F)c(C#Cc2nc(F)c(F)c(F)c2F)c1` registered a melting point of 164 to 165 °C.

Molecule `CC(Oc1cccc(-c2ccc(Cl)c(C(=O)NCC34CC5CC(CC(C5)C3)C4)c2)c1)C(=O)O` (stereo not given) had a melting point of 115 to 120 °C.

In the case of `CC(=O)NC[C@H]1CN(c2ccc(C(=O)c3cnc4ccc(Br)cn34)cc2)C(=O)O1`, the melting point lay in the range of 230 to 232 °C.

Consider `CC(O)c1ccc(C(C)Oc2cncc(C(=O)Nc3ccc(C#N)cc3)c2)cc1` (stereo not given), for which the melting point lay within 179 to 181 °C.

`CC(=S)NC[C@H]1CN(c2ccc(N3CCC(=O)N(C)CC3)c(F)c2)C(=O)O1`: the melting point is 157 to 158 °C.

As to `CC(=O)NCC1CC1c1c(-c2cccnc2)ccc2nn(C)cc12` (stereo not given), the melting point lay within 136 to 138 °C.

Molecule `O=C=Nc1cc(NS(=O)(=O)CCl)c(Cl)cc1F` registered a melting point of 102 °C.

On to `COc1ccc(CNC(=S)NNC(=O)C(N)=O)cc1`, for which the melting point lay in the range of 185 to 190 °C.

With `CCOC(=O)c1cc2c([nH]1)CCCC2`, the melting point is 70 to 72 °C.

For the molecule `CCCCC(=O)OC1C(O)C(CO)OC1n1cnc2c(OC)nc(N)nc21` (stereo not given), the melting point was in the range of 83 to 86 °C.

The molecule `CCN(CC)S(=O)(=O)c1cc2c(c(C(=O)O)c1)OCCO2` had a melting point of 149 °C.

Molecule `Cc1cnc(C(=O)c2[nH]c3cc(Cl)ccc3c2CC(=O)O)s1` yielded a melting point of 225 to 226 °C.

In the case of `OCCNc1cc(Nc2ccc(Nc3ccccc3)cc2)ncn1`, the melting point was 154 to 155 °C.

With `CC(=O)c1ccc(OCCCCCCCc2cc(C)no2)cc1`, the melting point lay within 69 to 71 °C.

With `COc1ccc(C2CCN(C(=O)C(N)=O)CC2)cc1C=C1CCCC1`, the melting point lay in the range of 116 to 117 °C.

As to `CC(C#Cc1cccc(Oc2nccs2)c1)N(O)C(N)=O` (stereo not given), the melting point is 118 to 119 °C.

The molecule `CCCc1nc(C(C)=O)c(C(=O)OCC)[nH]1` came in with a melting point of 76 to 78 °C.

On to `O=[N+]([O-])c1ccc2c(c1)CCN(Cc1ncn[nH]1)C2`, for which the melting point was in the range of 163 to 166 °C.

On to `O=C(O)Cc1nn(Cc2nc3cccc(Cl)c3s2)c(=O)c2ccccc12`, for which the melting point is 168 °C.

With `CCOC(=O)c1c(CC(=O)O)n(-c2ccc(OC(C)C)cc2)c2ccc(Oc3nc(C)ccc3C#N)cc12`, the melting point worked out at 179 °C.

`Cc1ccc(S(=O)(=O)Nc2ccc(C#N)cc2C#N)cc1` gave a melting point of 200 to 206 °C.

`C=CCNc1c(C(C)=O)cnc2cn[nH]c12` returned a melting point of 211 to 213 °C.

In the case of `c1ccc2c(CCN=c3sc4ccccc4s3)c[nH]c2c1`, the melting point lay within 149 to 150 °C.

Take `CCOC(=O)c1c[nH]c(Br)c1-c1ccc(Cl)cc1`: the melting point was 161 to 164 °C.

As for `O=C(O)Cn1ncc2c(=O)n3c(nc21)SCC3`, the melting point is 212 to 214 °C.

`Cc1cc(-c2c(-c3ccc(S(N)(=O)=O)cc3)cnn(-c3ccc(F)c(Cl)c3)c2=O)ccc1F`: the melting point was in the range of 243 to 245 °C.

The molecule `N#Cc1ccc(N2CCOCC2)c2ccccc12` returned a melting point of 128 to 129 °C.

`COc1ccc(-c2nc(N)nc(NC(=O)c3cccnc3)n2)c2ccccc12` registered a melting point of 208 to 209 °C.

Take `Cc1noc(CC(=O)O)n1`: the melting point was 95 °C.

In the case of `Oc1cccc(C2CCCN(CCc3c[nH]c4ccccc34)C2)c1` (stereo not given), the melting point fell in the range of 130 to 135 °C.

For the molecule `O=C1CN(C(=O)c2ccccc2Cl)c2ccccc2N1`, the melting point lay in the range of 222 to 224 °C.

The molecule `CC(C)(Cl)C(CNC(=O)c1ccc([N+](=O)[O-])o1)N=O` (stereo not given) registered a melting point of 110 to 112 °C.

The molecule `Cc1cc(C)cc(P(=O)(O)c2cc(C)cc(C)c2)c1` showed a melting point of 256 to 261 °C.

The molecule `CCCc1nc(C(O)C(C)(C)C)c(C(N)=O)n1Cc1ccc(-c2ccccc2-c2nnn[nH]2)cc1` (stereo not given) displayed a melting point of 174 to 176 °C.

In turn, `COc1cc(C2c3cc4c(cc3C(NC3=CC(=O)N(Cc5ccc(C(F)(F)F)cc5)C3=O)C3COC(=O)C23)OCO4)cc(OC)c1O` (stereo not given) showed a melting point of 184 to 186 °C.

The molecule `NCCCOc1ccc(-c2nnc(CSCCOc3ccccc3)o2)cc1` registered a melting point of 30 to 35 °C.

Molecule `CCOC(=O)c1ccc(C#CC(O)c2cc(C(C)(C)C)cc(C(C)(C)C)c2OC)cc1` (stereo not given) had a melting point of 101 to 103 °C.

`CCCN(C)c1ccc(-c2c(Cl)c(=O)c2=O)cc1` displayed a melting point of 162 °C.

`CC(C)(C)OC(=O)CN1C(=O)[C@@H](N[C@@H](CCC2CCCCC2)C(=O)O)COc2ccccc21` displayed a melting point of 180 to 183 °C.
